Laboratory results: US20050233453A1, “6-O-sulfated N-acetylheparosan and hematopoietic stem cell growth auxiliary agent” (SEIKAGAKU CORPORATION, priority 2004, published 2005)

System: plasma
Experiment: Measurement of activated partial thromboplastin time (APTT)
Conditions: test substance concentration of 100 μg/ml, rat plasma
Description: Hundred μl of plasma obtained by centrifuging at 1000×g for 10 minutes blood sampled from descending aorta of a rat with 1/10 volume of 3.2% […] and 100 μl of a different concentration of N-desulfated-N-reacetylated heparin or each 6-O-sulfated-N-acetylheparosan (Fraction I derived from Reaction-A, Fraction II derived from Reaction-A, and Reaction-B Product) were placed in a cup for measurement and the whole was kept at 37° C. for 1 minute. Thereafter, 100 μl of Actin (trade name: Mitsubishi Pharma Corporation) kept at 37° C. beforehand was added thereto, followed by maintenance at the temperature for 2 minutes. Then, 100 μl of a 0.02M calcium chloride solution kept at 37° C. was added and a time required for the occurrence of coagulation from this point was measured by means of an automatic blood coagulation-measuring apparatus (KC-10A; manufactured by Amelung).

Substance: N-desulfated-N-reacetylated heparin [reference compound]
- APTT: ≥ 80 s
